What was measured:
ABUTH [1] = assay: Pre-emergence herbicidal action against ABUTH; format: in vivo, Abutilon theophrasti; conditions: for Pre-emergence action against ABUTH (herbicidal activity): 80 g/ha, scored visually after 3 weeks vs untreated controls (100% = plants have died, 0% = like control plants); for Pre-emergence action against ABUTH (herbicidal activity in percent): dosage 20 g/ha, scored visually after 3 weeks vs untreated controls, 100% = plants have died, 0% = like control plants
Outline: (§1)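 Greenhouse pots of sandy loam held seeds covered with soil, onto which the compound was applied before emergence. An aqueous suspension or emulsion of WP or EC was used at 600 to 800 l/ha with 0.2% wetting agent. Percent damage was judged visually at 3 weeks.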

ALOMY [2] = assay: Pre-emergence herbicidal action against ALOMY; format: in vivo, Alopecurus myosuroides; conditions: 80 g/ha, pre-emergence, scored visually after 3 weeks vs untreated controls (100% = plants have died, 0% = like control plants)
Outline: as §1

AMARE [3] = assay: Pre-emergence herbicidal action against AMARE; format: in vivo, Amaranthus retroflexus
Outline: as §1

AVEFA [4] = assay: Pre-emergence herbicidal action against AVEFA; format: in vivo, Avena fatua; conditions: 80 g/ha, pre-emergence
Outline: as §1

ECHCG [5] = assay: Pre-emergence herbicidal action against ECHCG; format: in vivo, Echinochloa crus-galli; conditions: 80 g/ha
Outline: as §1

LOLRI = assay: Pre-emergence herbicidal action against LOLRI; format: in vivo, Lolium rigidum; conditions: 80 g/ha
Outline: as §1

MATIN [6] = assay: Pre-emergence herbicidal action against MATIN; format: in vivo, Matricaria inodora
Outline: as §1

PHBPU [7] = assay: Pre-emergence herbicidal action against PHBPU; format: in vivo, Pharbitis purpurea; conditions: dosage 80 g/ha
Outline: as §1

POLCO = assay: Pre-emergence herbicidal action against POLCO; format: in vivo, Polygonum convolvulus; conditions: dosage 80 g/ha
Outline: as §1

SETVI [8] = assay: Pre-emergence herbicidal action against SETVI; format: in vivo, Setaria viridis
Outline: as §1

VIOTR [9] = assay: Pre-emergence herbicidal action against VIOTR; format: in vivo, Viola tricolor
Outline: as §1

DIGSA [10] = assay: Pre-emergence herbicidal action against DIGSA; format: in vivo, Digitaria sanguinalis
Outline: as §1

ALOMY [11] = assay: Post-emergence herbicidal action against ALOMY; format: in vivo, Alopecurus myosuroides; conditions: visual assessment about 3 weeks after treatment vs untreated controls
Outline: (§2)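 Foliar application at one-leaf stage of formulated test compounds, aqueous spray at 600–800 l/ha with 0.2% wetting agent. Greenhouse, optimal conditions, ~3 weeks; damage scored visually in % relative to untreated plants.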

AVEFA [12] = assay: Post-emergence herbicidal action against AVEFA; format: in vivo, Avena fatua; conditions: 20 g/ha, visual assessment about 3 weeks after treatment, 100% = plants have died, 0% = like control plants
Outline: as §2

ECHCG [13] = assay: Post-emergence herbicidal action against ECHCG; format: in vivo, Echinochloa crus-galli
Outline: as §2

MATIN [14] = assay: Post-emergence herbicidal action against MATIN; format: in vivo, Matricaria inodora
Outline: as §2

PHBPU [15] = assay: Post-emergence herbicidal action against PHBPU; format: in vivo, Pharbitis purpurea
Outline: as §2

SETVI [16] = assay: Post-emergence herbicidal action against SETVI; format: in vivo, Setaria viridis
Outline: as §2

VIOTR [17] = assay: Post-emergence herbicidal action against VIOTR; format: in vivo, Viola tricolor
Outline: as §2

ABUTH [18] = assay: Post-emergence herbicidal action against ABUTH; format: in vivo, Abutilon theophrasti; conditions: visual assessment about 3 weeks after treatment vs untreated controls
Outline: as §2

AMARE [19] = assay: Post-emergence herbicidal action against AMARE; format: in vivo, Amaranthus retroflexus; conditions: 20 g/ha, visual assessment about 3 weeks after treatment, 100% = plants have died, 0% = like control plants
Outline: as §2

DIGSA [20] = assay: Post-emergence herbicidal action against DIGSA; format: in vivo, Digitaria sanguinalis
Outline: as §2

[21] = 20 g/ha, scored visually after 3 weeks vs untreated controls, 100% = plants have died, 0% = like control plants
[22] = 80 g/ha, scored visually after 3 weeks vs untreated controls (100% = plants have died, 0% = like control plants)

SMILES | Pre-emergence action against ABUTH (herbicidal activity) (ABUTH [1]) | Pre-emergence action against ABUTH (herbicidal activity in percent) (ABUTH [1]) | Pre-emergence action against ALOMY (herbicidal activity) (ALOMY [2]) | Pre-emergence action against AMARE in % (AMARE [3]; [21]) | Pre-emergence action against AMARE in % (AMARE [3]; [22]) | Pre-emergence action against AVEFA in % (AVEFA [4]) | Pre-emergence action against ECHCG in % (ECHCG [5]) | Pre-emergence action against LOLRI in % (LOLRI) | Pre-emergence action against MATIN in % (MATIN [6]; dosage 20 g/ha) | Pre-emergence action against MATIN in % (MATIN [6]; dosage 80 g/ha) | Pre-emergence action against POLCO in % (POLCO) | Pre-emergence action against SETVI in % (SETVI [8]; dosage 20 g/ha) | Pre-emergence action against SETVI in % (SETVI [8]; dosage 80 g/ha) | Pre-emergence action against VIOTR in % (VIOTR [9]; dosage 20 g/ha) | Pre-emergence action against VIOTR in % (VIOTR [9]; dosage 80 g/ha) | Pre-emergence action against DIGSA in % (DIGSA [10]; dosage 20 g/ha) | Pre-emergence action against DIGSA in % (DIGSA [10]; dosage 80 g/ha) | Post-emergence action against ALOMY in % (ALOMY [11]; dosage 5 g/ha) | Post-emergence action against ALOMY in % (ALOMY [11]; dosage 20 g/ha) | Post-emergence action at 20 g/ha against AVEFA in % (AVEFA [12]) | other results
CCn1nnnc1NC(=O)c1ccc(Br)c(C(=O)NCC(F)F)c1Cl [Example 2-182] | 100% | 100% | 80% | 100% | 100% | 90% | 100% | 80% | 90% | 100% | 90% | 90% | 100% | 100% | 100% | 100% | 100% | 80% | 100% | 80% | Pre-emergence action against PHBPU in % (PHBPU [7]): 90%; Post-emergence action against ECHCG in % (ECHCG [13]; dosage 5 g/ha): 90%; Post-emergence action against ECHCG in % (ECHCG [13]; dosage 20 g/ha): 90%; Post-emergence action against MATIN in % (MATIN [14]; dosage 5 g/ha): 90%; Post-emergence action against MATIN in % (MATIN [14]; dosage 20 g/ha): 90%; Post-emergence action against PHBPU in % (PHBPU [15]; dosage 5 g/ha): 80%; Post-emergence action against PHBPU in % (PHBPU [15]; dosage 20 g/ha): 90%; Post-emergence action against SETVI in % (SETVI [16]; dosage 5 g/ha): 90%; Post-emergence action against SETVI in % (SETVI [16]; dosage 20 g/ha): 100%; Post-emergence action against VIOTR in % (VIOTR [17]; 20 g/ha): 100%
CCn1nnnc1NC(=O)c1ccc(I)c(C(=O)NC)c1Cl [Example 2-195] | 100% | 100% | 100% | 100% | 100% | 80% | 80% | 90% | 100% | 100% | 80% | 80% | 100% | 100% | 100% | 90% | 100% | 80% | 100% | 80% | Post-emergence action against ABUTH in % (ABUTH [18]; dosage 5 g/ha): 100%; Post-emergence action against ABUTH in % (ABUTH [18]; dosage 20 g/ha): 100%; Post-emergence action at 20 g/ha against AMARE in % (AMARE [19]): 100%; Post-emergence action against MATIN in % (MATIN [14]; dosage 5 g/ha): 80%; Post-emergence action against MATIN in % (MATIN [14]; dosage 20 g/ha): 90%; Post-emergence action against SETVI in % (SETVI [16]; dosage 5 g/ha): 90%; Post-emergence action against SETVI in % (SETVI [16]; dosage 20 g/ha): 100%; Post-emergence action against VIOTR in % (VIOTR [17]; 5 g/ha): 100%; Post-emergence action against VIOTR in % (VIOTR [17]; 20 g/ha): 100%; Post-emergence action against DIGSA in % (DIGSA [20]; 5 g/ha): 80%; Post-emergence action against DIGSA (DIGSA [20]; 20 g/ha): 90%
